pEC50: −log10 of the molar value. Where “and” joins values, the source holds several entries; their conditions need not be identical. Equal entries are not always repeated. Where two headings read alike, the source gives them in different places.
Key:
Type in all cases: cell-based
[1] = tested on: parental 293T cells; experiment: annexin–PI staining; details: for P3_avg (P3 = early apoptotic) / P5_avg (P5 = late apoptotic): Cell_Line WT, proportion of cells; for avgprop_P3 / avgprop_P4 / avgprop_P5 / avgprop_P2 / P2_viable / P3_AnnexinPos_PIneg / P4_PIpos_AnnexinNeg / P5_PIpos_Annexinpos / prop_P3 / prop_P4 / prop_P5 / prop_P2: WT; for avgprop_P3: average proportion AnnexinPos PIneg; for avgprop_P4: average proportion PIpos AnnexinNeg; for avgprop_P5: average proportion PIpos Annexinpos; for avgprop_P2: average proportion viable; for P2_viable / P3_AnnexinPos_PIneg / P4_PIpos_AnnexinNeg / P5_PIpos_Annexinpos: event count; for P2_viable / P3_AnnexinPos_PIneg / P4_PIpos_AnnexinNeg / P5_PIpos_Annexinpos / prop_P3 / prop_P4 / prop_P5 / prop_P2: single replicate; for prop_P3: proportion AnnexinPos PIneg; for prop_P4: proportion PIpos AnnexinNeg; for prop_P5: proportion PIpos Annexinpos; for prop_P2: proportion viable
Method: Cells were plated in six-well plates and treated with varying concentrations of compounds for 1 day. Cells were stained with annexin V–AF488 and PI following the manufacturer’s instructions (Thermo Fisher, V13241) and analyzed by flow cytometry (Beckman CytoFLEX LX), using untreated cells to establish gates.

[2] = tested on: p53 luciferase transcriptional reporter in MFE319 cells; experiment: p53 luciferase reporter assay; details: for p53 luciferase reporter signal (normalized), replicates: MFE319
Method: (§1) Huh7 and MFE319 cell lines stably expressing a p53 reporter (Addgene, 90363)[59] were generated. Cells were plated in 384-well plates (1,500 cells per well) and treated with varying concentrations of compound. Then, 16 h after treatment, firefly luciferase substrate was added to the cells and luminescence was monitored using an EnVision 2105 multimode plate reader.

[3] = tested on: p53 luciferase transcriptional reporter in Huh7 cells; experiment: p53 luciferase reporter assay; details: for p53 luciferase reporter signal (normalized), replicates: Huh7
Method: as §1

[4] = CellTiter-Glo cell viability; details: human, BxPC-3 cells, BXPC3, 4 day, read-out: mean_norm (normalized viability)
Method: (§2) Cells were plated in 384-well plates (typically 1,500 cells per well) with varying concentrations of compounds, with a total volume of 50 μl per well. CTG reagent was added (25 μl) to the solutions, mixed and read out using an EnVision 2105 multimode plate reader.

[5] = tested on: 293T cells expressing a dox inducible Halo–p53-Y220C ΔTAD–mCherry; experiment: viability with doxycycline-inducible construct
Method: as §2

[6] = viability with doxycycline-inducible construct; details: human, dox 0, read-out: mean_norm (normalized viability)
Method: as §2

[7] = tested on: Calu-1 cells stably expressing Halo–p53-R273H (FL)–mCherry versus parental Calu-1 cells; experiment: flow-cytometry growth competition; details: 7 days
Method: (§3) Cells with and without a fluorescent marker (for example, Halo–p53–mCherry) were mixed and the resulting solution was plated in six-well plates or 10-cm dishes at low density; compound was added at varying concentrations. After reaching confluence, cells were passaged and retreated with compound if needed. Otherwise, cells were trypsinized, washed and resuspended in complete growth medium in 96-well plates or tubes for flow cytometry. Untreated cell mixtures were used to establish gates separating the fluorophore^+/− populations. Analysis was conducted on a CytoFLEX LX flow cytometer.

[8] = tested on: Halo–p53-Y220C ΔTAD–mCherry 293T cells versus parental 293T cells; experiment: flow-cytometry growth competition; details: for pEC50: Homo sapiens, HEK-293T; for normalized_mCherry_percentage: Y220C, day 8, normalized to DMSO
Method: as §3

[9] = tested on: MFE319 cells stably expressing sgTP53–Cas9–EGFP versus parental MFE319 cells; experiment: flow-cytometry growth competition
Method: as §3

CC[C@@H]1C(=O)N(C)c2cnc(Nc3ccc(C(=O)NCCOCCOCCOCCOCCC(=O)N4CCC(Nc5cccc6c5cc(C#CCNc5ccc(S(C)(=O)=O)cc5OC)n6CC(F)(F)F)CC4)cc3OC)nc2N1C1CCCC1 [p53-01, PMV6-PEG4-BI2536]
P3_avg (P3 = early apoptotic) ([1]; Concentration 0.75): 0.05911 | P5_avg (P5 = late apoptotic) ([1]; Concentration 0.75): 0.02085 | P3_avg (P3 = early apoptotic) ([1]; Concentration 1.5): 0.05067 | P5_avg (P5 = late apoptotic) ([1]; Concentration 1.5): 0.02081 | avgprop_P3 ([1]; Concentration 0.75): 0.05911 | avgprop_P4 ([1]; Concentration 0.75): 0.03071 | avgprop_P5 ([1]; Concentration 0.75): 0.02085 | avgprop_P2 ([1]; Concentration 0.75): 0.8893 | P2_viable ([1]; Concentration 0.75): 1988 and 1975 and 1922 | P3_AnnexinPos_PIneg ([1]; Concentration 0.75): 134 and 116 and 141 | P4_PIpos_AnnexinNeg ([1]; Concentration 0.75): 58 and 71 and 74 | P5_PIpos_Annexinpos ([1]; Concentration 0.75): 48 and 44 and 46 | prop_P3 ([1]; Concentration 0.75): 0.06014 and 0.05258 and 0.06459 | prop_P4 ([1]; Concentration 0.75): 0.02603 and 0.03218 and 0.0339 | prop_P5 ([1]; Concentration 0.75): 0.02154 and 0.01995 and 0.02107 | prop_P2 ([1]; Concentration 0.75): 0.8923 and 0.8953 and 0.8804 | avgprop_P3 ([1]; Concentration 1.5): 0.05067 | avgprop_P4 ([1]; Concentration 1.5): 0.03243 | avgprop_P5 ([1]; Concentration 1.5): 0.02081 | avgprop_P2 ([1]; Concentration 1.5): 0.8961 | P2_viable ([1]; Concentration 1.5): 1971 and 1980 and 1990 | P3_AnnexinPos_PIneg ([1]; Concentration 1.5): 112 and 109 and 115 | P4_PIpos_AnnexinNeg ([1]; Concentration 1.5): 75 and 68 and 72 | P5_PIpos_Annexinpos ([1]; Concentration 1.5): 48 and 43 and 47 | prop_P3 ([1]; Concentration 1.5): 0.05077 and 0.04955 and 0.05171 | prop_P4 ([1]; Concentration 1.5): 0.034 and 0.03091 and 0.03237 | prop_P5 ([1]; Concentration 1.5): 0.02176 and 0.01955 and 0.02113 | prop_P2 ([1]; Concentration 1.5): 0.8935 and 0.9 and 0.8948 | induction of p53 reporter ([2]; 16 h): no induction of luciferase activity | p53 luciferase reporter signal (normalized), replicates ([2]; log Concentration (pM) 4.59176): 0.9836 and 1.068 and 1.04 and 1.096 and 1.012 and 0.9977 | p53 luciferase reporter signal (normalized), replicates ([2]; log Concentration (pM) 4.89279): 1.026 and 1.11 and 0.9977 and 0.9555 and 1.04 and 1.096 | p53 luciferase reporter signal (normalized), replicates ([2]; log Concentration (pM) 5.19382): 0.9836 and 1.11 and 1.04 and 1.082 (2×) and 1.096 | p53 luciferase reporter signal (normalized), replicates ([2]; log Concentration (pM) 5.49485): 0.9696 and 0.9977 and 1.012 (2×) and 1.082 and 1.04 | p53 luciferase reporter signal (normalized), replicates ([2]; log Concentration (pM) 5.79588): 0.9696 and 1.096 (3×) and 1.068 and 0.9274 | p53 luciferase reporter signal (normalized), replicates ([2]; log Concentration (pM) 6.09691): 1.152 and 1.068 and 1.012 (2×) and 1.124 and 1.04 | p53 luciferase reporter signal (normalized), replicates ([2]; log Concentration (pM) 6.39794): 0.9977 (2×) and 1.068 and 1.096 and 1.012 and 0.9836 | p53 luciferase reporter signal (normalized), replicates ([2]; log Concentration (pM) 6.69897): 1.012 (4×) and 0.9977 and 1.04 | p53 luciferase reporter signal (normalized), replicates ([2]; log Concentration (pM) 7): 1.054 and 0.9836 (2×) and 1.082 (2×) and 0.8431 | induction of p53 reporter ([3]; 16 h, PMV6 at doses of 1.25–10 μM): no such effect | p53 luciferase reporter signal (normalized), replicates ([3]; log Concentration (pM) 4.59176): 0.9363 (2×) and 1.029 and 0.989 (2×) and 0.8835 | p53 luciferase reporter signal (normalized), replicates ([3]; log Concentration (pM) 4.89279): 1.081 and 0.9758 and 1.0022 and 1.095 and 1.147 and 0.9363 | p53 luciferase reporter signal (normalized), replicates ([3]; log Concentration (pM) 5.19382): 0.8967 and 0.9231 and 0.9363 and 0.9758 and 1.095 and 1.081 | p53 luciferase reporter signal (normalized), replicates ([3]; log Concentration (pM) 5.49485): 1.015 and 0.9363 and 1.029 and 1.0022 and 1.108 and 1.095 | p53 luciferase reporter signal (normalized), replicates ([3]; log Concentration (pM) 5.79588): 1.055 (2×) and 1.095 and 0.9495 and 0.9231 (2×) | p53 luciferase reporter signal (normalized), replicates ([3]; log Concentration (pM) 6.09691): 0.9099 and 0.9626 and 0.9231 and 1.0022 and 0.9758 and 0.8835 | p53 luciferase reporter signal (normalized), replicates ([3]; log Concentration (pM) 6.39794): 0.9495 and 1.029 and 0.9758 and 1.0022 and 1.015 and 1.042 | p53 luciferase reporter signal (normalized), replicates ([3]; log Concentration (pM) 6.69897): 0.9363 and 0.9231 and 1.042 and 1.095 and 1.068 and 0.8835 | p53 luciferase reporter signal (normalized), replicates ([3]; log Concentration (pM) 7): 0.9363 and 1.0022 (3×) and 1.015 and 0.9758 | viability at 4 day ([4]; Concentration 39.0625): 96% | viability at 4 day ([4]; Concentration 78.125): 94.9% | viability at 4 day ([4]; Concentration 156.25): 99% | viability at 4 day ([4]; Concentration 312.5): 91% | viability at 4 day ([4]; Concentration 10000): 44% | viability at 4 day ([4]; Concentration 20000): 25.6% | change of potency upon doxycycline induction ([5]; dox 0, 100, 1000 ng/mL, 4 days): approximately twofold | mean_norm (normalized viability) ([5]; dox 0, Concentration 39.0625): 0.9911 | mean_norm (normalized viability) ([5]; dox 0, Concentration 78.125): 0.9922 | mean_norm (normalized viability) ([5]; dox 0, Concentration 10000): 0.4681 | mean_norm (normalized viability) ([5]; dox 100, Concentration 39.0625): 0.9915 | mean_norm (normalized viability) ([5]; dox 100, Concentration 78.125): 1.002 | mean_norm (normalized viability) ([5]; dox 100, Concentration 156.25): 0.9543 | mean_norm (normalized viability) ([5]; dox 100, Concentration 312.5): 0.9412 | mean_norm (normalized viability) ([5]; dox 100, Concentration 625): 0.8872 | mean_norm (normalized viability) ([5]; dox 100, Concentration 1250): 0.7055 | mean_norm (normalized viability) ([5]; dox 100, Concentration 2500): 0.6021 | mean_norm (normalized viability) ([5]; dox 100, Concentration 5000): 0.3858 | mean_norm (normalized viability) ([5]; dox 100, Concentration 10000): 0.3055 | mean_norm (normalized viability) ([5]; dox 1000, Concentration 39.0625): 0.9926 | mean_norm (normalized viability) ([5]; dox 1000, Concentration 78.125): 1.004 | mean_norm (normalized viability) ([5]; dox 1000, Concentration 156.25): 1.0052 | mean_norm (normalized viability) ([5]; dox 1000, Concentration 312.5): 0.8955 | mean_norm (normalized viability) ([5]; dox 1000, Concentration 625): 0.8604 | mean_norm (normalized viability) ([5]; dox 1000, Concentration 1250): 0.7628 | mean_norm (normalized viability) ([5]; dox 1000, Concentration 2500): 0.5571 | mean_norm (normalized viability) ([5]; dox 1000, Concentration 5000): 0.3298 | mean_norm (normalized viability) ([5]; dox 1000, Concentration 10000): 0.194 | viability ([6]; Concentration 156.25): 99.3% | viability ([6]; Concentration 312.5): 95.6% | viability ([6]; Concentration 625): 95.7% | viability ([6]; Concentration 1250): 95.8% | viability ([6]; Concentration 2500): 77.5% | viability ([6]; Concentration 5000): 60.1% | activity in competition [7]: did not observe any activity | mCherry_percent ([8]; 1 uM, 8 days, untreated 39.76): 6.93% | Emax, decline in the mCherry^+ fraction ([8]; 8-day competition): 21.5 fold | pEC50 ([8]; 192 h, 8-day competition, read-out: EC50 growth competition): 6.35 | pEC50 ([8]; 240 h, growth competition analyzed on day 10, n = 3, read-out: Competition EC50): 6.07 | normalized_mCherry_percentage ([8]; 62.5 nM): 97.27% | normalized_mCherry_percentage ([8]; 125 nM): 95.36% | normalized_mCherry_percentage ([8]; 250 nM): 82.43% | normalized_mCherry_percentage ([8]; 500 nM): 42.51% | normalized_mCherry_percentage ([8]; 1 uM): 16.67% | normalized_mCherry_percentage ([8]; 2 uM): 4.655% | selection in growth competition ([8]; dosed between 250 nM and 2 μM, 8-day): strong selection against p53-Y220C^+ cells | mCherry^+ percentage in competition, replicate ([8]; p53-01 250 nM, untreated 28.89, 29.94, 29.02): 3.07 and 3.6 and 3.2 | decline in mCherry^+ percentage ([8]; p53-01 alone at 250 nM): 8.9 fold | merge_avg (growth competition, sheet 4H) ([9]; Concentration (pM) 156250): 0.9416 | merge_avg (growth competition, sheet 4H) ([9]; Concentration (pM) 312500): 0.9268 | merge_avg (growth competition, sheet 4H) ([9]; Concentration (pM) 600000): 0.9517 | merge_avg (growth competition, sheet 4H) ([9]; Concentration (pM) 800000): 1.131 | merge_avg (growth competition, sheet 4H) ([9]; Concentration (pM) 1000000): 1.205 | merge_avg (growth competition, sheet 4H) ([9]; Concentration (pM) 1100000): 1.344 | merge_avg (growth competition, sheet 4H) ([9]; Concentration (pM) 1250000): 1.624 | enrichment of EGFP^+ (TP53-knockout) population ([9]; day 9, p53-01 at doses between 800 nM and 1.25 μM): significantly enrich an EGFP^+ population
